Test results from ChEMBL document CHEMBL1159314, “Eupha-7,9(11),24-trien-3beta-ol ("antiquol C") and other triterpenes from Euphorbia antiquorum latex and their inhibitory effects on Epstein-Barr virus activation” (J Nat Prod, 2002).

What was measured:
Assay type in all cases: cell-based
Raji [1] = experiment: Inhibition of TPA-induced EBV-early antigen activation in human Raji cells at 100 molar ratio after 48 hrs relative to TPA; parameters: scale not given: the % may be the effect or the level left; conditions: human gammaherpesvirus 4
Raji [2] = experiment: Inhibition of TPA-induced EBV-early antigen activation in human Raji cells at 1000 molar ratio after 48 hrs relative to TPA; parameters: scale not given: the % may be the effect or the level left; conditions: human gammaherpesvirus 4
[3] = Cytotoxicity against human Raji cells assessed as cell viability at 1000 molar ratio after 48 hrs by trypan blue assay; conditions: read-out: Activity
Raji [4] = experiment: Inhibition of TPA-induced EBV-early antigen activation in human Raji cells at 500 molar ratio after 48 hrs relative to TPA; parameters: scale not given: the % may be the effect or the level left; conditions: human gammaherpesvirus 4
Raji [5] = experiment: Inhibition of TPA-induced EBV-early antigen activation in human Raji cells at 10 molar ratio after 48 hrs relative to TPA; parameters: scale not given: the % may be the effect or the level left; conditions: human gammaherpesvirus 4

SMILES | Activity (Raji [1]) | Activity (Raji [2]) | viability at 48 h, 1000 molar ratio [3] | Activity (Raji [4]) | Activity (Raji [5])
CC(C)=CCC[C@]1(C)CC[C@]2(C)C3=CC[C@H]4C(C)(C)[C@@H](O)CC[C@]4(C)[C@H]3CC[C@@]2(C)C1 | 79.4% | 2.2% | 70% | 33.8% | 97.2%
CC1=C(/C=C/C(C)=C/C=C/C(C)=C/C=C/C=C(C)/C=C/C=C(C)/C=C/C2=C(C)CCCC2(C)C)C(C)(C)CCC1 | – | 8.6% | – | – | 100%
CC(C)=CCC[C@@H](C)[C@@H]1CC[C@]2(C)C3=CC[C@H]4C(C)(C)[C@@H](O)CC[C@]4(C)C3=CC[C@@]12C [ANTIQUOL C] | 75% | 0% | 70% | 28.2% | 92.8%
CC(C)=CCC/C(C)=C/CC/C(C)=C/CC/C=C(\C)CC[C@@H]1C(C)=CC[C@H](O)C1(C)C [CAMELLIOL C] | 86.3% | 20.1% | 70% | 51.5% | 100%
CC(C)=CCC[C@@H](C)[C@@H]1CC[C@]2(C)C3=C(CC[C@@]12C)[C@@]1(C)CC[C@H](O)C(C)(C)[C@@H]1CC3 [EUPHOL] | 75.7% | 0% | 70% | 29.8% | 93.5%
C=C(CC[C@H](C)[C@@H]1CC[C@]2(C)C3=C(CC[C@@]12C)[C@@]1(C)CC[C@H](O)C(C)(C)[C@@H]1CC3)C(C)C [EUPHORBOL] | 77.9% | 0% | 70% | 32.6% | 95.8%
CC(C)=CCC[C@@H](C)[C@@H]1CC[C@]2(C)[C@H]3CCC(=C(C)C)[C@@H](CCCO)[C@]3(C)CC[C@@]12C [ISOHELIANOL] | 72.4% | 0% | 70% | 25.8% | 95.7%
